As a reminder, the IC50 is the concentration needed to halve the response being measured. Read a high IC50 as weaker potency in that assay.

Bounds are passed on as bounds.

This passage reports IC50 results from patent US9718834B2, “Processes and intermediates for making a JAK inhibitor” (Incyte Corporation, priority 2011, dated 2017).

For this assay, the target named is T1, human JAK1 (a.a. 837-1142) (Homo sapiens, UniProt P23458).
T1 construct: human JAK1 (a.a. 837-1142); His tag (N); made in house; host or cells: insect cells (baculovirus)
The experiment in a line: In vitro JAK kinase assay (HTRF, phosphorylation of biotinylated peptide), JAK1. It counts as biochemical. To be noted: measured at 1 mM ATP. How it is done:
The compound of Formula I herein was tested for inhibitory activity of JAK targets according to the following in vitro assay described in Park et al., Analytical Biochemistry 1999, 269, 94-104. The catalytic domains of human JAK1 (a.a. 837-1142) and JAK2 (a.a. 828-1132) with an N-terminal His tag were expressed using baculovirus in insect cells and purified. The catalytic activity of JAK1 and JAK2 was assayed by measuring the phosphorylation of a biotinylated peptide. The phosphorylated peptide was detected by homogenous time resolved fluorescence (HTRF). IC50s of compounds were measured for each kinase in the 40 microL reactions that contain the enzyme, ATP and 500 nM peptide in 50 mM Tris (pH 7.8) buffer with 100 mM NaCl, 5 mM DTT, and 0.1 mg/mL (0.01%) BSA. For the 1 mM IC50 measurements, ATP concentration in the reactions was 1 mM. Reactions were carried out at room temperature for 1 hr and then stopped with 20 μL 45 mM EDTA, 300 nM SA-APC, 6 nM Eu-Py20 in assay buffer (Perkin Elmer, Boston, Mass.). Binding to the Europium labeled antibody took place for 40 minutes and HTRF signal was measured on a Fusion plate reader (Perkin Elmer, Boston, Mass.).
In general terms: Time-resolved FRET reads energy transfer from a long-lived donor to a nearby acceptor.

T1 sequence (P23458 849-1154): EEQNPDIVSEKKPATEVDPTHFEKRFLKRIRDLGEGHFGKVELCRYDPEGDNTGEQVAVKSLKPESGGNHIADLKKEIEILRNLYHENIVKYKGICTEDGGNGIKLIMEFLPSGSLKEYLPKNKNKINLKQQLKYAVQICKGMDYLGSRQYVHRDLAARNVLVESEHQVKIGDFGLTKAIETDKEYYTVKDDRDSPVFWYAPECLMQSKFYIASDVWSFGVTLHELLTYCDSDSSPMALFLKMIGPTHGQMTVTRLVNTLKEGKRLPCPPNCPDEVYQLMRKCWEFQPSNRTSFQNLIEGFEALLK

In turn, `N#CCC1(n2cc(-c3ncnc4[nH]ccc34)cn2)CN(C2CCN(C(=O)c3ccnc(C(F)(F)F)c3F)CC2)C1` [Example 1, {1-{1-[3-fluoro-2-(trifluoromethyl)isonicotinoyl]piperidin-4-yl}-3-[4-(7H-pyrrolo[2,3-d]pyrimidin-4-yl)-1H-pyrazol-1-yl]azetidin-3-yl}acetonitrile] displayed an IC50 of at most 5 nM.
